# Assays:
# [1] = Dynamic vapor sorption (DVS) moisture sorption analysis; assay type: physicochemical
# Procedure: Dynamic Vapor Sorption (DVS)
# The moisture sorption analysis (DVS) was performed using a ProUmid GmbH & Co.
# KG Vsorp Enhanced dynamic vapor sorption apparatus. The moisture profile was evaluated by monitoring vapor adsorption/desorption over the range of 0 to 90% relative humidity at 25° C. The sample weight equilibrium criteria were set at 0.01% change in 45 min with minimum and maximum time of acclimation at 50 min and 120 min, respectively. The moisture profile consisted of 2 cycles of vapor adsorption/desorption.
# OCI-AML3 cells = assay: Proliferation (spheroid) assay, OCI-AML3; assay type: cell-based; conditions: Homo sapiens, OCI-AML-3, 192 h; 8 days; read-out: spheroid assay_OCI-AML3 IC50
# Procedure: (§1) The anti-proliferative effect of menin/MLL protein/protein interaction inhibitor test compounds was assessed in human leukemia cell lines. The cell line MOLM14 harbors a MLL translocation and expresses the MLL fusion protein MLL-AF9, respectively, as well as the wildtype protein from the second allele. OCI-AML3 cells that carry the NPM1c gene mutation were also tested. […] KO-52 was used as a control cell line containing two MLL (KMT2A) wildtype alleles in order to exclude compounds that display general cytotoxic effects.
# (§2) MOLM14 cells were cultured in RPMI-1640 (Sigma Aldrich) supplemented with 10% heat-inactivated fetal bovine serum (HyClone), 2 mM L-glutamine (Sigma Aldrich) and 50 μg/ml gentamycin (Gibco). KO-52 and OCI-AML3 cell lines were propagated in alpha-MEM (Sigma Aldrich) supplemented with 20% heat-inactivated fetal bovine serum (HyClone), 2 mM L-glutamine (Sigma Aldrich) and 50 μg/ml gentamycin (Gibco).
# (§3) In order to assess the anti-proliferative effects, 200 MOLM14 cells, 200° C. […] Spheroid like growth was measured in real-time by live-cell imaging (IncuCyteZOOM, Essenbio, 4× objective) acquiring images at day 8. Confluence (%) as a measure of spheroid size was determined using an integrated analysis tool.
# (§4) In order to determine the effect of the test compounds over time, the confluence in each well as a measure of spheroid size, was calculated. […]
# KO-52 cells = assay: Proliferation (spheroid) assay, KO-52 control cell line; assay type: cell-based; conditions: Homo sapiens, 192 h; 8 days; read-out: spheroid assay_KO-52 IC50
# Procedure: as §1, §2, §3, §4
# MOLM14 cells = assay: Proliferation (spheroid) assay, MOLM14; assay type: cell-based; conditions: Homo sapiens, MOLM-14, 192 h, 8 days; read-out: spheroid assay_MOLM14 IC50
# Procedure: as §1, §2
# In order to assess the anti-proliferative effects, 200 MOLM14 cells, […] or 300 KO-52 cells were seeded in 200 μl media per well in 96-well round bottom, ultra-low attachment plates (Costar, catalogue number 7007). Cell seeding numbers were chosen based on growth curves to ensure linear growth throughout the experiment. Test compounds were added at different concentrations and the DMSO content was normalized to 0.3%. Cells were incubated for 8 days at 37° C. and 5% CO2. Spheroid like growth was measured in real-time by live-cell imaging (IncuCyteZOOM, Essenbio, 4× objective) acquiring images at day 8. Confluence (%) as a measure of spheroid size was determined using an integrated analysis tool.
# In order to determine the effect of the test compounds over time, the confluence in each well as a measure of spheroid size, was calculated. Confluence of the highest dose of a reference compound was used as baseline for the LC (Low control) and the confluence of DMSO treated cells was used as 0% cytotoxicity (High Control, HC).
# Absolute IC50 values were calculated as percent change in confluence as follows: • LC=Low Control: cells treated with e.g. 1 μM of the cytotoxic agent staurosporin, or e.g. cells treated with a high concentration of an alternative reference compound • HC═High Control: Mean confluence (%) (DMSO treated cells) • % Effect=100−(100*(Sample-LC)/(HC-LC))
# GraphPad Prism (version 7.00) was used to calculate the ICso. Dose-response equation was used for the plot of % Effect vs Log10 compound concentration with a variable slope and fixing the maximum to 100% and the minimum to 0%.
# MEIS1 mRNA = MEIS1 mRNA expression assay (Quantigene Singleplex) in MOLM14 cells; assay type: cell-based; conditions: Homo sapiens, MOLM-14, 48 hours
# Procedure: 2b) MEIS1 mRNA Expression Assay
# MEIS1 mRNA expression upon treatment of compound was examined by Quantigene Singleplex assay (Thermo Fisher Scientific). This technology allows for direct quantification of mRNA targets using probes hybridizing to defined target sequences of interest and the signal is detected using a Multimode plate reader Envision (PerkinElmer). The MOLM14 cell line was used for this experiment. Cells were plated in 96-well plates at 3,750 cells/well in the presence of increasing concentrations of compounds. After incubation of 48 hours with compounds, cells were lysed in lysis buffer and incubated for 45 minutes at 55° C. Cell lysates were mixed with human MEIS1 specific capture probe or human RPL28 (Ribosomal Protein L28) specific probe as a normalization control, as well as blocking probes. Cell lysates were then transferred to the custom assay hybridization plate (Thermo Fisher Scientific) and incubated for 18 to 22 hours at 55° C. Subsequently, plates were washed to remove unbound materials followed by sequential addition of preamplifiers, amplifiers, and label probe. Signals (=gene counts) were measured with a Multimode plate reader Envision. IC50s were calculated by dose-response modelling using appropriate software. For all non-housekeeper genes response equal counts corrected for background and relative expression. For each sample, each test gene signal (background subtracted) was divided by the normalization gene signal (RPL28: background subtracted). Fold changes were calculated by dividing the normalized values for the treated samples by the normalized values for the DMSO treated sample. Fold changes of each target gene were used for the calculation of IC50s.
# [2] = common ambient RH of 40% to 75%
smiles,measurement,setting,value
CC(=O)N1CCC(CN2CC[C@@H](Cc3cn(-c4ccc(F)cc4C(=O)N(C)C(C)C)c4cncc(C)c34)C2)CC1 [Compound 51a],total moisture mass at equilibrium,[1]; [2],8.5-9.5%
same,water content at equilibrium,[1]; [2],around 3 equivalents of water
same,hygroscopicity (DVS change in mass plot),"[1]; crystalline HCl salt Form, 0 to 90% relative humidity, 25° C.",hygroscopic
same,solid-state form after DVS test (XRPD),[1]; fraction obtained after the DVS test compared to starting material,No indication of a solid-state form change
same,"moisture adsorbed and desorbed, on average","[1]; humidity range of 20-90% RH, 25° C.",up to 2.5 % by mass
same,IC50,OCI-AML3 cells,70 nM
same,IC50,KO-52 cells,1200 nM
same,IC50,MOLM14 cells,13 nM
same,IC50,MEIS1 mRNA,11 nM
